Earlier results in patent US6794359B2, “Vertebrate intestinal protein which absorbs cholesterol, its inhibitors and mehtod of identifying the same” (Aventis Pharma Deutschland GmbH, priority 2000, dated 2004).
Where two headings read alike, the source gives them in different places.

Assays:
[1] = test system: intestinal cholesterol absorption; settings: dogs
[2] = test system: intestinal cholesterol absorption; settings: rabbits
[3] = test system: intestinal cholesterol absorption; settings: hamsters
[4] = test system: intestinal cholesterol absorption; settings: humans
[5] = test system: intestinal cholesterol absorption; settings: rhesus monkeys

SMILES: COc1ccc([C@@H]2[C@@H](CCCc3ccccc3)C(=O)N2c2ccc(OC)cc2)cc1 [SCH 48461]
- inhibition of intestinal cholesterol absorption [1]: very efficiently inhibits
- inhibition of intestinal cholesterol absorption [2]: very efficiently inhibits
- inhibition of intestinal cholesterol absorption [3]: very efficiently inhibits
- inhibition of intestinal cholesterol absorption [4]: very efficiently inhibits
- inhibition of intestinal cholesterol absorption [5]: very efficiently inhibits

SMILES: O=C1[C@H](CC[C@H](O)c2ccc(F)cc2)[C@@H](c2ccc(O)cc2)N1c1ccc(F)cc1 [SCH 58235]
- increase of effect on direct comparison ([3]; direct comparison with SCH 48461): 50 fold

SMILES: CC[C@H](CC[C@@H](C)[C@H]1CC[C@H]2[C@@H]3CC=C4C[C@@H](O)CC[C@]4(C)[C@H]3CC[C@]12C)C(C)C [β-sitosterol]
- inhibition of cholesterol absorption ([4]; background statement): an inhibition of cholesterol absorption
